This is an account of results in patent US9694401B2, “Method and apparatus for treating perfluoroalkyl compounds” (ThinkVillage-Kerfoot, LLC, priority 2013, dated 2017).

Data set [1] is described as follows: Bench scale soil treatment (2400 ppmV O3), groundwater over soil slurry. Format: physicochemical. The note with it: for PFC concentration in groundwater over soil slurry, 30 MIN / PFC concentration in groundwater over soil slurry, 60 MIN / PFC concentration in groundwater over soil slurry, 120 MIN / % REMOVAL in groundwater over soil slurry: 2400 ppmV O3, 10% peroxide; for % REMOVAL in groundwater over soil slurry: start to 120 MIN. On the procedure:
(§1) On one foam fire-fighting site, samples of groundwater from monitoring well 1 (MW1) and soil samples between MW1 and monitoring well 3 (MW3) were shipped to the laboratory in coolers with blue ice packing to maintain the temperature at less than 4.4° C. (40° F.). Two sets of tests were conducted, groundwater and soil treatment.
(§2) For soil samples, 1000 cm^3 of soil was mixed together and then separated into four 250 cm^3 aliquots. The first was submitted as background (start) condition. The remaining three were treated with a fine bubble-coated ozone bubble solution from the pressurized generator (20-25 psi). The ozone concentration was 2400 ppmV with a flow of 5 cm^3/sec. The peroxide was 10% solution and supplied at 5 cm^3/min flow. The generator was filled with 500 liters of groundwater from the site well (MW1) which was delivered in 50 cm^3 surges to a two-liter flask with the soil under constant stirring action. The subsequent reaction raised the temperature of the soil/liquid solution from 20.6° C. (69° F.) to 22.8° C. (73° F.) after 10 minutes, reaching 41.1° C. (106° F.) after 30 minutes. For the 30-minute treatment, no further bubble solution was added; the flask was placed over water until bubbling ceased or two hours and then placed in chilled water. The overlying groundwater was decanted off, and the underlying semi-solid was placed in a glass jar and chilled for transport for analysis. A similar procedure was followed for the 60- and 120-minute soil aliquots.

For data set [2] the following is noted: cited from earlier work.
The nature of data set [3]: Bench scale groundwater treatment with peroxide-coated ozone nanobubbles (1260 ppmV O3, 10% H2O2). Type of data set: physicochemical. The note with it: for PFC concentration in groundwater, 1 HR: 1260 ppmV O3, 10% H2O2, 1 HR; for PFC concentration in groundwater, 2 HR: 1260 ppmV O3, 10% H2O2, 2 HR; for % REMOVAL from groundwater: 1260 ppmV O3, 10% H2O2, start to last time point; for PFC concentration in groundwater, START: untreated start (0 minutes). On the procedure:
as §1
Bench scale tests were conducted in a pressurized glass cylindrical reaction cell (17-20 psi) holding a laminar stainless steel spargepoint with a 0.20-micron porous surface. Four liters of groundwater were mixed together. A liter of distilled water as a blank was treated and set aside for analysis. The first liter of groundwater was also set aside as “start” condition (0 minutes). One liter of groundwater from MW1 was added to the cell. An ozone flow of 5 cm^3/sec was added at 1260 ppmV. Peroxide (10%) flow was 8 cm^3/minute and treated for 30 minutes. Pressure was 17-20 psi.
A second liter was added to the chamber and treated for 60 minutes. The blank, original (start), 30 minute, and 60 minute samples were placed in ice for analysis. A final sample (120 minute) was treated with 60 minutes of peroxide, but ozone continued for 120 minutes.

Data set [4] can be described thus: Bench scale soil treatment with peroxide-coated ozone nanobubbles (2400 ppmV O3), soil fraction. Type of data set: physicochemical. The note with it: for removal in the soil series: 2400 ppmV O3, 41.1° C. to 43.3° C.; for decomposing the other PF compounds (removal) by the new solution: matrix not given. On the procedure: as §1, §2
Data set [5] can be described thus: Bench scale groundwater treatment with peroxide-coated ozone nanobubbles (1260 ppmV O3, 10% H2O2). Type of data set: physicochemical. The note with it: 1260 ppmV O3, 10% H2O2, 3 HR.
For data set [6] the following is noted: cited from earlier work; for Water Solubility: at 25° C.
For data set [7] the following is noted: 155 mg/L PFOA, 12 g/L persulfate, 80° C., cited from earlier work.
For data set [8] the following is noted: cited from earlier work. This is another data set of the same source.
For data set [9] the following is noted: cited from earlier work. The source holds these as a separate data set.
The conditions of data set [10]: cited from earlier work. The source holds these as a separate data set.

Structures can show the parent of a compound that is named as a salt. Where two headings read alike, the source gives them in different places. Bounds are passed on as bounds.

`O=S(=O)(O)C(F)(F)C(F)(F)C(F)(F)C(F)(F)C(F)(F)C(F)(F)C(F)(F)C(F)(F)F` [PFOS, perfluorooctane sulfonate]: in data set [1], the “PFC concentration in groundwater over soil slurry, 30 MIN” value stood at 340; the “PFC concentration in groundwater over soil slurry, 60 MIN” value is reported as 33; the “PFC concentration in groundwater over soil slurry, 120 MIN” value amounted to 44; the “% REMOVAL in groundwater over soil slurry” value (“% REMOVAL in groundwater” for short) was 89.8%. The “PFC concentration in groundwater over soil slurry, START” value in data set [1] is on record as 430. In addition, the “Acidity (pKa)” value in data set [2] was <<0. Further, in data set [3], the “PFC concentration in groundwater, 1 HR” value came to 150; the “PFC concentration in groundwater, 2 HR” value came out at 160; the “% REMOVAL from groundwater” value is listed as 82.3%; the “PFC concentration in groundwater, START” value is listed as 430. The “removal in the soil series” value in data set [4] is recorded as “over 99%”. Further, the “PFC concentration in groundwater, 3 HR” value in data set [5] is 76.

As for `O=S(=O)(O)C(F)(F)C(F)(F)C(F)(F)C(F)(F)C(F)(F)C(F)(F)F` [PFHxS, perfluorohexane sulfonate], in data set [1], the “PFC concentration in groundwater over soil slurry, 30 MIN” value is 87; the “PFC concentration in groundwater over soil slurry, 60 MIN” value worked out at 14; the “PFC concentration in groundwater over soil slurry, 120 MIN” value was found to be 8; the “% REMOVAL in groundwater” value is given as 97.4%. Besides, in data set [1], the “PFC concentration in groundwater over soil slurry, START” value was determined as 300. In data set [3], the “PFC concentration in groundwater, 1 HR” value is 100; the “PFC concentration in groundwater, 2 HR” value amounted to 110; the “% REMOVAL from groundwater” value turned out to be 86%; the “PFC concentration in groundwater, START” value stood at 300. Also, the “decomposing the other PF compounds (removal) by the new solution” value (shortened to “decomposing the other PF compounds”) in [4] worked out at 98.1%. For the same compound, the “PFC concentration in groundwater, 3 HR” value in data set [5] is listed as 42.

`O=C(O)C(F)(F)C(F)(F)C(F)(F)C(F)(F)F` [PFPeA, perfluoropentanoic acid]: in data set [1], the “PFC concentration in groundwater over soil slurry, 30 MIN” value was found to be 13; the “PFC concentration in groundwater over soil slurry, 60 MIN” value worked out at 8; the “PFC concentration in groundwater over soil slurry, 120 MIN” value was 6; the “% REMOVAL in groundwater” value stood at 92.9%. In [1], the “PFC concentration in groundwater over soil slurry, START” value came to 84. In data set [3], the “PFC concentration in groundwater, 1 HR” value was found to be 27; the “PFC concentration in groundwater, 2 HR” value was found to be 23; the “% REMOVAL from groundwater” value was found to be 82.1%; the “PFC concentration in groundwater, START” value is listed as 84. In data set [4], the “decomposing the other PF compounds” value is 89.8%. Further, the “PFC concentration in groundwater, 3 HR” value in data set [5] is 15.

Consider `O=C(O)C(F)(F)C(F)(F)C(F)(F)C(F)(F)C(F)(F)C(F)(F)C(F)(F)F` [PFOA, perfluorooctanoic acid], for which, in data set [1], the “PFC concentration in groundwater over soil slurry, 30 MIN” value stood at 22; the “PFC concentration in groundwater over soil slurry, 60 MIN” value is recorded as 4; the “PFC concentration in groundwater over soil slurry, 120 MIN” value was determined as 3; the “% REMOVAL in groundwater” value stood at 91.2%. Moreover, the “PFC concentration in groundwater over soil slurry, START” value in data set [1] is given as 34. Besides, the Solubility in water result in data set [6] (Table 2) was “Soluble, 9.5 g/L”. Moreover, the “Water Solubility” value in data set [6] (purified) is listed as 9.5 × 10^3 (purified) mg/L. In data set [2], the “Acidity (pKa)” value is listed as 0. Further, in data set [7] (6 hours), the “Fluoride ions formed (molar ratio)” value is 77.5% and the “carbon dioxide formed (molar ratio)” value is on record as 70.2%. The “aqueous phase PFOA concentration after treatment” value in [7] (after 6 hours, 0.6 mg/L = detection limit) is given as “less than 0.6 mg/L”. For the same compound, in data set [8], the “Vapor Pressure at 20° C.” value was 0.017 mm Hg. Also, in data set [3], the “PFC concentration in groundwater, 1 HR” value is on record as 17; the “PFC concentration in groundwater, 2 HR” value was 13; the “% REMOVAL from groundwater” value was 73.6%; the “PFC concentration in groundwater, START” value is 34. In data set [4], the “removal in the soil series” value is “over 97%”. In addition, the “Solubility in other solvents” value in data set [9] is listed as “Polar organic solvents”. In addition, the PFOA degraded in data set [10] (1 M H2O2 and 0.5 mM iron (III), within 150 minutes) is 94%. The PFOA degradation result in data set [10] (reactions generating O2^− or HO2^− alone) is “degraded rapidly”. In data set [5], the “PFC concentration in groundwater, 3 HR” value is 9.

Turning to `O=S(=O)(O)C(F)(F)C(F)(F)C(F)(F)C(F)(F)C(F)(F)C(F)(F)C(F)(F)C(F)(F)F` [PFOS (Potassium Salt)], the “Water Solubility” value is given as “(freshwater), 25 (filtered mg/L” in [6] (filtered seawater) and 370 mg/L in [6] (freshwater). The “Vapor Pressure at 20° C.” value in data set [8] is on record as 2.48 × 10^−6 mm Hg.

On to `OO` [H2O2, hydrogen peroxide], for which the “Acidity (pKa)” value in data set [2] is 11.7.

Turning to `O=C(O)C(F)(F)C(F)(F)C(F)(F)C(F)(F)C(F)(F)F` [PFHxA, perfluorohexanoic acid], in data set [1], the “PFC concentration in groundwater over soil slurry, 30 MIN” value is listed as 75; the “PFC concentration in groundwater over soil slurry, 60 MIN” value came out at 34; the “PFC concentration in groundwater over soil slurry, 120 MIN” value is listed as 23; the “% REMOVAL in groundwater” value came to 91.5%. Besides, the “PFC concentration in groundwater over soil slurry, START” value in data set [1] came out at 270. Besides, in data set [3], the “PFC concentration in groundwater, 1 HR” value was 110; the “PFC concentration in groundwater, 2 HR” value is on record as 150; the “% REMOVAL from groundwater” value amounted to 69.2%; the “PFC concentration in groundwater, START” value was 270. In addition, in data set [4], the “decomposing the other PF compounds” value was found to be 86.2%. Further, the “PFC concentration in groundwater, 3 HR” value in data set [5] is 86.
